{
  "source": "patent US8163871B2",
  "about": "“Enzymatic reactions in the presence of keto acids” (Unigene Laboratories, Inc., priority 2004, dated 2012)",
  "system": "peptidylglycine α-amidating monooxygenase (PAM)",
  "assay": "α-Amidation of rhPTH(1-31)Gly32-OH to rhPTH(1-31)-NH2 with PAM in the presence of α-keto acids/esters (CEX-HPLC area %)",
  "type": "biochemical",
  "details": "4 mg/mL rhPTH(1-31)Gly32-OH, 15,000 U/mL PAM, MES pH 6.3-6.5, 4 hours at 37° C.",
  "text": "Because the R group is unchanged in this reaction, a large number of R moieties is possible. Applicants have tested a number of keto acids (or corresponding esters or salts thereof), and have reported their efficacy in Table 1 below for the amidation of recombinant human parathyroid hormone truncate (first 31 amino acids of PTH followed by C-terminal glycine). Amidation using catalase is also reported in the footnotes to Table 1. […] A preferred concentration was chosen for each compound. Also, separate controls are therefore used with respect to each of the compounds tested in Table 1, so that each compound's performance may be compared to its corresponding control. […] The control values that are set forth in Table 1 are typical values observed for amidation of rhPTH(1-31)Gly32-OH in the absence of the reaction-enhancing compounds of the invention.\nTo determine the information in Table 1 below, stock solutions of all reagents were prepared in water. Amidations were carried out under the following conditions: 4 mg/mL rhPTH(1-31)Gly32-OH, 30 mM 2-morpholinoethanesulfonic acid (MES) pH [6.3-6.5], 0.5 μM cupric sulfate, 5 mM potassium iodide, 2 mM ascorbate, [0-1%] ethanol and 15,000 U/mL PAM. All reactions were incubated for 4 hours at 37° C. Reagents were added in the following order: rhPTH(1-31)Gly32-OH, water, MES, potassium iodide, ethanol, cupric sulfate, α-keto acid or ester, ascorbate and PAM. All reactions were acidified to pH 2.0 with 6% trifluoroacetic acid and analyzed by CEX-HPLC (area %) to detect formation of the desired product rhPTH(1-31)NH2.",
  "data": [
    {"compound": "CC(C)C(=O)C(=O)[O-].[Na+]", "note": "[3-Methyl-2-oxobutanoic acid, sodium salt]", "values": [
      {"measurement": "% Conversion", "setting": "64 mM compound", "value": 78, "unit": "%"}
    ]},
    {"compound": "CCC(=O)C(=O)[O-].[Na+]", "note": "[2-Ketobutyric acid, sodium salt]", "values": [
      {"measurement": "% Conversion", "setting": "16 mM compound", "value": 96, "unit": "%"}
    ]},
    {"compound": "CC(C)CC(=O)C(=O)[O-].[Na+]", "note": "[4-Methyl-2-oxopentanoic acid, sodium salt]", "values": [
      {"measurement": "% Conversion", "setting": "10-150 mM compound", "value": "<48", "unit": "%"}
    ]},
    {"compound": "2-Keto glutaric acid, sodium salt", "values": [
      {"measurement": "% Conversion", "setting": "10 mM compound", "value": 76, "unit": "%"}
    ]},
    {"compound": "CC(=O)C(=O)[O-].[Na+]", "note": "[Sodium pyruvate]", "values": [
      {"measurement": "% Conversion", "setting": "8 mM compound", "value": 95, "unit": "%"}
    ]},
    {"compound": "CCOC(=O)C(C)=O", "note": "[Ethyl pyruvate]", "values": [
      {"measurement": "% Conversion", "setting": "50 mM compound", "value": 89, "unit": "%"}
    ]},
    {"compound": "CCC(C)C(=O)C(=O)[O-].[Na+]", "note": "(stereo not shown) [3-Methyl-2-oxopentanoic acid, sodium salt]", "values": [
      {"measurement": "% Conversion", "setting": "10-150 mM compound", "value": "≦61%"}
    ]},
    {"compound": "COC(=O)C(C)=O", "note": "[Methyl pyruvate]", "values": [
      {"measurement": "% Conversion", "setting": "50 mM compound", "value": 86, "unit": "%"}
    ]},
    {"compound": "O=C(O)C(=O)c1ccccc1", "note": "[Benzoylformic acid]", "values": [
      {"measurement": "% Conversion", "setting": "10 mM compound", "value": 82, "unit": "%"}
    ]},
    {"compound": "CC(=O)C(=O)O", "note": "[Pyruvic acid]", "values": [
      {"measurement": "% Conversion", "setting": "6 mM compound, average of triplicate values", "value": "86^a %"}
    ]}
  ]
}
